Laboratory results published in patent publication US8658639B2, “N-substituted-cyclic amino derivative” (Dainippon Sumitomo Pharma Co., Ltd, priority 2009, dated 2014).

Columns and labels:
Recombinant human renin = biological target: T1, Recombinant human renin (Homo sapiens, UniProt P00797); assay: In vitro renin inhibitory activity assay; assay type: biochemical; conditions: recombinant human renin 4.2 ng/mL, substrate 4 μM, 37° C., one hour, pH 7.4
T1 sequence (P00797 67-406): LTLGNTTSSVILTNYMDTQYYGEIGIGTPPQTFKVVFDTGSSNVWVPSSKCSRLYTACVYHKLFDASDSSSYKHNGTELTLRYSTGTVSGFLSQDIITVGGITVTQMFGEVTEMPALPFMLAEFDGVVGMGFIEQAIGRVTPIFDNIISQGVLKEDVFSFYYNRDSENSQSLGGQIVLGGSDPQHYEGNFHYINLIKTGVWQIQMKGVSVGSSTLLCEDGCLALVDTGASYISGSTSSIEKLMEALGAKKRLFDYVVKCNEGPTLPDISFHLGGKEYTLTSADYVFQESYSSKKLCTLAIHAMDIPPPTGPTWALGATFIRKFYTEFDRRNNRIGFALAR
Procedure: Experiment 1: In Vitro Renin Inhibitory Activity Assay
Recombinant human renin (4.2 ng/mL) was reacted in 0.1M HEPES buffer (pH 7.4) containing 0.1M NaCl, 1 mM EDTA and 0.1 mg/mL BSA together with a substrate and a test compound at 37° C. for one hour. As the substrate, Arg-Glu(EDANS)-Ile-His-Pro-Phe-His-Leu-Val-Ile-His-Thr-Lys(DABCYL)-Arg (SEQ ID NO: 1) or DABCYL-γ-Abu-Ile-His-Pro-Phe-His-Leu-Val-Ile-His-Thr-EDANS (SEQ ID NO: 2) was added in such an amount so that the final concentration thereof became 4 μM. The elevated fluorescence intensity at the exciting wavelength 340 nm and the fluorescence wavelength 500 nm was measured by a fluorescence plate reader. The concentration of a test compound to be needed to inhibit an enzyme activity in the presence of a test compound in several concentrations by 50% was calculated as an IC50 value. The test compounds were diluted in DMSO and used in this Experiment.

[1] = system: abdominal skin of CD male rats; assay: Testing for irritation by single subcutaneous administration to rats; assay type: in vivo; design: key: — No inflammation; Amount of Inflammation: * < ** < *** < ****; Amount of Inflammation: * < ** < *** < ****; Amount of Inflammation: * < ** < *** < ****; Amount of Inflammation: * < ** < *** < ****; conditions: single subcutaneous administration 0.1 ml, 2% in DMSO and saline
Procedure: Experiment 2: Testing for Irritation by Single Subcutaneous Administration to Rats
A test compound was measured and dissolved in DMSO and a saline solution in a concentration of 2%.

| IC50 (Recombinant human renin) [µM] | Structure (SMILES) | Observation at Administration Site, One day after administration [1] | Observation at Administration Site, Three days after administration [1] |
| --- | --- | --- | --- |
| 0.0053 | CCC(=O)NCCN1C(=O)C2(CCC2)Oc2cc(C)c(C(=O)N(C(C)C)C3CCCN(C(=O)OC(C)OC(=O)c4ccc(C)cc4)C3)cc21 (stereo not drawn) [Example 79, 1-{[(4-Methylphenyl)carbonyl]oxy}ethyl 3-[({7-methyl-3-oxo-4-[2-(propanoylamino)ethyl]-3,4-dihydrospiro[1,4-benzoxazine-2,1′-cyclobutan]-6-yl}carbonyl)(2-propanyl)amino]-1-piperidinecarboxylate] | *** | *** |
| 0.0017 | CCC(=O)NCCN1C(=O)C2(CCC2)Oc2cc(C)c(C(=O)N(C(C)C)[C@@H]3CCCN(C(=O)OCc4oc(=O)oc4C)C3)cc21 [Example 81] | ** | — |
| 0.53 | CCC(=O)NCCN1C(=O)C2(CCC2)Oc2cc(C)c(C(=O)N(C(C)C)[C@@H]3CCCN(C(=O)O[C@H](C)OC(=O)C(C)C)C3)cc21 [Example 82] | ** | — |
| 1.9 | CCC(=O)NCCN1C(=O)[C@](C)(COC)Oc2cc(C)c(C(=O)N(C(C)C)[C@@H]3CCCN(C(=O)O[C@H](C)OC(=O)C(C)C)C3)cc21 [Example 93] | — | — |
